# System: CAL-120
# Assay: normalised response (% of control), CellTox Green; higher = less cell death (100 = DMSO, 0 = benzethonium chloride kill control)
# Conditions: incubation time: 72 h
# Summary of the method: (§1)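 Each value is the plate-normalised signal at one concentration of the series. Breast cancer cell lines (20 µl suspension) were incubated 72 h in 384-well plates with compound at 5 concentrations in 10-fold steps over a compound-specific 10,000-fold range. CellTox Green and then CellTiter-Glo were read, and each plate was scaled to 0.1 % DMSO (100) and a positive kill control (0).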
row,SMILES,normalised response
1,C[C@]12CC[C@H](O)CC1=CC[C@@H]1[C@@H]2CC[C@]2(C)C(c3cccnc3)=CC[C@@H]12 [Abiraterone] (5000 nM),98%
2,CC(C)c1c(C(=O)Nc2ccccc2)c(-c2ccccc2)c(-c2ccc(F)cc2)n1CC[C@@H](O)C[C@@H](O)CC(=O)O [Atorvastatin] (10000 nM),45.3%
3,Cn1c(=O)n(-c2ccc(C(C)(C)C#N)cc2)c2c3cc(-c4cnc5ccccc5c4)ccc3ncc21 [Dactolisib] (1000 nM),104%
4,Nc1ncnc2c1c(COc1cccc(Cl)c1)nn2C1CCOCC1 (10000 nM),109%
5,O=C1NC(=O)[C@@H](c2cn3c4c(cccc24)CCC3)[C@@H]1c1c[nH]c2ccccc12 [Tivantinib] (1000 nM),74.4%
6,O=C(O)CCCc1ccc(N(CCCl)CCCl)cc1 [Chlorambucil] (10000 nM),102%

# System: MFM-223
# Assay: as above
# Conditions: incubation time: 72 h
# Summary of the method: as §1
row,SMILES,normalised response
1,NS(=O)(=O)OC[C@@H]1C[C@@H](n2ccc3c(N[C@H]4CCc5ccccc54)ncnc32)C[C@@H]1O [Pevonedistat] (10000 nM),99%
2,CN(C)C[C@@H]1CCn2cc(c3ccccc32)C2=C(C(=O)NC2=O)c2cn(c3ccccc23)CCO1 [Ruboxistaurin] (10000 nM),73.5%
3,C[C@]12CC[C@H](O)CC1=CC[C@@H]1[C@@H]2CC[C@]2(C)C(c3cccnc3)=CC[C@@H]12 [Abiraterone] (5000 nM),101%
4,CC(C)c1c(C(=O)Nc2ccccc2)c(-c2ccccc2)c(-c2ccc(F)cc2)n1CC[C@@H](O)C[C@@H](O)CC(=O)O [Atorvastatin] (10000 nM),101%
5,Cn1c(=O)n(-c2ccc(C(C)(C)C#N)cc2)c2c3cc(-c4cnc5ccccc5c4)ccc3ncc21 [Dactolisib] (1000 nM),28.8%
6,Nc1ncnc2c1c(COc1cccc(Cl)c1)nn2C1CCOCC1 (10000 nM),98.8%
7,O=C1NC(=O)[C@@H](c2cn3c4c(cccc24)CCC3)[C@@H]1c1c[nH]c2ccccc12 [Tivantinib] (1000 nM),76.4%
8,O=C(O)CCCc1ccc(N(CCCl)CCCl)cc1 [Chlorambucil] (10000 nM),99.2%

# System: MDA-MB-468
# Assay: as above
# Conditions: incubation time: 72 h
# Summary of the method: as §1
row,SMILES,normalised response
1,NS(=O)(=O)OC[C@@H]1C[C@@H](n2ccc3c(N[C@H]4CCc5ccccc54)ncnc32)C[C@@H]1O [Pevonedistat] (10000 nM),56.6%
2,CN(C)C[C@@H]1CCn2cc(c3ccccc32)C2=C(C(=O)NC2=O)c2cn(c3ccccc23)CCO1 [Ruboxistaurin] (10000 nM),-88%
3,C[C@]12CC[C@H](O)CC1=CC[C@@H]1[C@@H]2CC[C@]2(C)C(c3cccnc3)=CC[C@@H]12 [Abiraterone] (5000 nM),151%
4,CC(C)c1c(C(=O)Nc2ccccc2)c(-c2ccccc2)c(-c2ccc(F)cc2)n1CC[C@@H](O)C[C@@H](O)CC(=O)O [Atorvastatin] (10000 nM),121%
5,Cn1c(=O)n(-c2ccc(C(C)(C)C#N)cc2)c2c3cc(-c4cnc5ccccc5c4)ccc3ncc21 [Dactolisib] (1000 nM),170%
6,Nc1ncnc2c1c(COc1cccc(Cl)c1)nn2C1CCOCC1 (10000 nM),112%
7,O=C1NC(=O)[C@@H](c2cn3c4c(cccc24)CCC3)[C@@H]1c1c[nH]c2ccccc12 [Tivantinib] (1000 nM),60.4%
8,O=C(O)CCCc1ccc(N(CCCl)CCCl)cc1 [Chlorambucil] (10000 nM),141%

# System: CAL-85-1
# Assay: as above
# Conditions: incubation time: 72 h
# Summary of the method: as §1
row,SMILES,normalised response
1,NS(=O)(=O)OC[C@@H]1C[C@@H](n2ccc3c(N[C@H]4CCc5ccccc54)ncnc32)C[C@@H]1O [Pevonedistat] (10000 nM),53.7%
2,CN(C)C[C@@H]1CCn2cc(c3ccccc32)C2=C(C(=O)NC2=O)c2cn(c3ccccc23)CCO1 [Ruboxistaurin] (10000 nM),-82.9%
3,C[C@]12CC[C@H](O)CC1=CC[C@@H]1[C@@H]2CC[C@]2(C)C(c3cccnc3)=CC[C@@H]12 [Abiraterone] (5000 nM),77.8%
4,CC(C)c1c(C(=O)Nc2ccccc2)c(-c2ccccc2)c(-c2ccc(F)cc2)n1CC[C@@H](O)C[C@@H](O)CC(=O)O [Atorvastatin] (10000 nM),86.1%
5,Cn1c(=O)n(-c2ccc(C(C)(C)C#N)cc2)c2c3cc(-c4cnc5ccccc5c4)ccc3ncc21 [Dactolisib] (1000 nM),64.6%
6,Nc1ncnc2c1c(COc1cccc(Cl)c1)nn2C1CCOCC1 (10000 nM),91.3%
7,O=C1NC(=O)[C@@H](c2cn3c4c(cccc24)CCC3)[C@@H]1c1c[nH]c2ccccc12 [Tivantinib] (1000 nM),20.5%
8,O=C(O)CCCc1ccc(N(CCCl)CCCl)cc1 [Chlorambucil] (10000 nM),82.5%

# System: BT-549
# Assay: as above
# Conditions: incubation time: 72 h
# Summary of the method: as §1
row,SMILES,normalised response
1,NS(=O)(=O)OC[C@@H]1C[C@@H](n2ccc3c(N[C@H]4CCc5ccccc54)ncnc32)C[C@@H]1O [Pevonedistat] (10000 nM),78.3%
2,CN(C)C[C@@H]1CCn2cc(c3ccccc32)C2=C(C(=O)NC2=O)c2cn(c3ccccc23)CCO1 [Ruboxistaurin] (10000 nM),30.4%
3,C[C@]12CC[C@H](O)CC1=CC[C@@H]1[C@@H]2CC[C@]2(C)C(c3cccnc3)=CC[C@@H]12 [Abiraterone] (5000 nM),128%
4,CC(C)c1c(C(=O)Nc2ccccc2)c(-c2ccccc2)c(-c2ccc(F)cc2)n1CC[C@@H](O)C[C@@H](O)CC(=O)O [Atorvastatin] (10000 nM),102%
5,Cn1c(=O)n(-c2ccc(C(C)(C)C#N)cc2)c2c3cc(-c4cnc5ccccc5c4)ccc3ncc21 [Dactolisib] (1000 nM),112%
6,Nc1ncnc2c1c(COc1cccc(Cl)c1)nn2C1CCOCC1 (10000 nM),110%
7,O=C1NC(=O)[C@@H](c2cn3c4c(cccc24)CCC3)[C@@H]1c1c[nH]c2ccccc12 [Tivantinib] (1000 nM),85.3%
8,O=C(O)CCCc1ccc(N(CCCl)CCCl)cc1 [Chlorambucil] (10000 nM),78.8%

# System: BT-474
# Assay: as above
# Conditions: incubation time: 72 h
# Summary of the method: as §1
row,SMILES,normalised response
1,NS(=O)(=O)OC[C@@H]1C[C@@H](n2ccc3c(N[C@H]4CCc5ccccc54)ncnc32)C[C@@H]1O [Pevonedistat] (10000 nM),104%
2,CN(C)C[C@@H]1CCn2cc(c3ccccc32)C2=C(C(=O)NC2=O)c2cn(c3ccccc23)CCO1 [Ruboxistaurin] (10000 nM),-10.6%
3,C[C@]12CC[C@H](O)CC1=CC[C@@H]1[C@@H]2CC[C@]2(C)C(c3cccnc3)=CC[C@@H]12 [Abiraterone] (5000 nM),99.7%
4,CC(C)c1c(C(=O)Nc2ccccc2)c(-c2ccccc2)c(-c2ccc(F)cc2)n1CC[C@@H](O)C[C@@H](O)CC(=O)O [Atorvastatin] (10000 nM),104%
5,Cn1c(=O)n(-c2ccc(C(C)(C)C#N)cc2)c2c3cc(-c4cnc5ccccc5c4)ccc3ncc21 [Dactolisib] (1000 nM),101%
6,Nc1ncnc2c1c(COc1cccc(Cl)c1)nn2C1CCOCC1 (10000 nM),106%
7,O=C1NC(=O)[C@@H](c2cn3c4c(cccc24)CCC3)[C@@H]1c1c[nH]c2ccccc12 [Tivantinib] (1000 nM),76%
8,O=C(O)CCCc1ccc(N(CCCl)CCCl)cc1 [Chlorambucil] (10000 nM),99.8%

# System: MCF-10A
# Assay: as above
# Conditions: incubation time: 72 h
# Summary of the method: as §1
row,SMILES,normalised response
1,NS(=O)(=O)OC[C@@H]1C[C@@H](n2ccc3c(N[C@H]4CCc5ccccc54)ncnc32)C[C@@H]1O [Pevonedistat] (10000 nM),95.7%
2,CN(C)C[C@@H]1CCn2cc(c3ccccc32)C2=C(C(=O)NC2=O)c2cn(c3ccccc23)CCO1 [Ruboxistaurin] (10000 nM),54.2%
3,C[C@]12CC[C@H](O)CC1=CC[C@@H]1[C@@H]2CC[C@]2(C)C(c3cccnc3)=CC[C@@H]12 [Abiraterone] (5000 nM),76.5%
4,CC(C)c1c(C(=O)Nc2ccccc2)c(-c2ccccc2)c(-c2ccc(F)cc2)n1CC[C@@H](O)C[C@@H](O)CC(=O)O [Atorvastatin] (10000 nM),1.75%
5,Cn1c(=O)n(-c2ccc(C(C)(C)C#N)cc2)c2c3cc(-c4cnc5ccccc5c4)ccc3ncc21 [Dactolisib] (1000 nM),87.3%
6,Nc1ncnc2c1c(COc1cccc(Cl)c1)nn2C1CCOCC1 (10000 nM),86.3%
7,O=C1NC(=O)[C@@H](c2cn3c4c(cccc24)CCC3)[C@@H]1c1c[nH]c2ccccc12 [Tivantinib] (1000 nM),57.7%
8,O=C(O)CCCc1ccc(N(CCCl)CCCl)cc1 [Chlorambucil] (10000 nM),83%

# System: HDQ-P1
# Assay: as above
# Conditions: incubation time: 72 h
# Summary of the method: as §1
row,SMILES,normalised response
1,NS(=O)(=O)OC[C@@H]1C[C@@H](n2ccc3c(N[C@H]4CCc5ccccc54)ncnc32)C[C@@H]1O [Pevonedistat] (10000 nM),90.5%
2,CN(C)C[C@@H]1CCn2cc(c3ccccc32)C2=C(C(=O)NC2=O)c2cn(c3ccccc23)CCO1 [Ruboxistaurin] (10000 nM),26.2%
3,C[C@]12CC[C@H](O)CC1=CC[C@@H]1[C@@H]2CC[C@]2(C)C(c3cccnc3)=CC[C@@H]12 [Abiraterone] (5000 nM),62.7%
4,CC(C)c1c(C(=O)Nc2ccccc2)c(-c2ccccc2)c(-c2ccc(F)cc2)n1CC[C@@H](O)C[C@@H](O)CC(=O)O [Atorvastatin] (10000 nM),85.6%
5,Cn1c(=O)n(-c2ccc(C(C)(C)C#N)cc2)c2c3cc(-c4cnc5ccccc5c4)ccc3ncc21 [Dactolisib] (1000 nM),115%
6,Nc1ncnc2c1c(COc1cccc(Cl)c1)nn2C1CCOCC1 (10000 nM),109%
7,O=C1NC(=O)[C@@H](c2cn3c4c(cccc24)CCC3)[C@@H]1c1c[nH]c2ccccc12 [Tivantinib] (1000 nM),80.2%
8,O=C(O)CCCc1ccc(N(CCCl)CCCl)cc1 [Chlorambucil] (10000 nM),104%

# System: MDA-MB-453
# Assay: as above
# Conditions: incubation time: 72 h
# Summary of the method: as §1
row,SMILES,normalised response
1,NS(=O)(=O)OC[C@@H]1C[C@@H](n2ccc3c(N[C@H]4CCc5ccccc54)ncnc32)C[C@@H]1O [Pevonedistat] (10000 nM),95.5%
2,CN(C)C[C@@H]1CCn2cc(c3ccccc32)C2=C(C(=O)NC2=O)c2cn(c3ccccc23)CCO1 [Ruboxistaurin] (10000 nM),9.28%
3,C[C@]12CC[C@H](O)CC1=CC[C@@H]1[C@@H]2CC[C@]2(C)C(c3cccnc3)=CC[C@@H]12 [Abiraterone] (5000 nM),110%
4,CC(C)c1c(C(=O)Nc2ccccc2)c(-c2ccccc2)c(-c2ccc(F)cc2)n1CC[C@@H](O)C[C@@H](O)CC(=O)O [Atorvastatin] (10000 nM),88%
5,Cn1c(=O)n(-c2ccc(C(C)(C)C#N)cc2)c2c3cc(-c4cnc5ccccc5c4)ccc3ncc21 [Dactolisib] (1000 nM),104%
6,Nc1ncnc2c1c(COc1cccc(Cl)c1)nn2C1CCOCC1 (10000 nM),104%
7,O=C1NC(=O)[C@@H](c2cn3c4c(cccc24)CCC3)[C@@H]1c1c[nH]c2ccccc12 [Tivantinib] (1000 nM),96.2%
8,O=C(O)CCCc1ccc(N(CCCl)CCCl)cc1 [Chlorambucil] (10000 nM),102%

# System: HCC1937
# Assay: normalised response (% of control), CellTiter-Glo; higher = more viable cells (100 = DMSO, 0 = benzethonium chloride kill control)
# Conditions: incubation time: 72 h
# Method: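 DSRT, 72 h incubation, CellTox Green / CellTiter-Glo readout. Signal is normalised to DMSO and benzethonium chloride controls. Value is the normalised response at the highest dose.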
row,SMILES,normalised response
1,NS(=O)(=O)OC[C@@H]1C[C@@H](n2ccc3c(N[C@H]4CCc5ccccc54)ncnc32)C[C@@H]1O [Pevonedistat] (10000 nM),60.3%
2,CN(C)C[C@@H]1CCn2cc(c3ccccc32)C2=C(C(=O)NC2=O)c2cn(c3ccccc23)CCO1 [Ruboxistaurin] (10000 nM),38.5%
3,C[C@]12CC[C@H](O)CC1=CC[C@@H]1[C@@H]2CC[C@]2(C)C(c3cccnc3)=CC[C@@H]12 [Abiraterone] (5000 nM),97.7%
4,CC(C)c1c(C(=O)Nc2ccccc2)c(-c2ccccc2)c(-c2ccc(F)cc2)n1CC[C@@H](O)C[C@@H](O)CC(=O)O [Atorvastatin] (10000 nM),68.3%

# Reference: the supplement of paper PMC4862054
